Measurements taken from ChEMBL document CHEMBL1151999, “3-Lithioquinuclidin-2-ene: A novel intermediate for the synthesis of muscarinic agonists and antagonists” (Bioorg Med Chem Lett, 1994).

Assays:
[1] = target: Muscarinic acetylcholine receptor M3 (Homo sapiens, UniProt P20309); experiment: In vitro binding affinity towards muscarinic receptor in parotid gland (M3); assay type: tissue-based
[2] = target: T1, Muscarinic acetylcholine receptor M2 (Homo sapiens, UniProt P08172); experiment: In vitro binding affinity towards muscarinic receptor in heart (M2) was determined
T1 sequence (P08172 whole entry): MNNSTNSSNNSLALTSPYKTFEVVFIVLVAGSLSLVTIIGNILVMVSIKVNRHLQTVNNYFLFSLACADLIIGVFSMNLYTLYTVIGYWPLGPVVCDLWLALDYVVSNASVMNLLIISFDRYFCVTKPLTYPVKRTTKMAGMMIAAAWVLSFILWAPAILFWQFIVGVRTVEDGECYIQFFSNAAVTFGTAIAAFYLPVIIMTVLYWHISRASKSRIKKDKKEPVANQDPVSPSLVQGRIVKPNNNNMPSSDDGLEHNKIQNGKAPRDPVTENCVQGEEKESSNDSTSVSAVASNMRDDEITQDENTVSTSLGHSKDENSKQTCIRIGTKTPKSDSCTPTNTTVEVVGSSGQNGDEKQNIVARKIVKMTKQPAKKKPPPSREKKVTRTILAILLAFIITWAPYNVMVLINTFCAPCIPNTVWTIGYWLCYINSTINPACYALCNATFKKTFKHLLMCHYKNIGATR

[3] = target: Muscarinic acetylcholine receptor; experiment: In vitro binding affinity towards muscarinic receptor in urinary bladder was determined; assay type: protein assay, Cavia porcellus
[4] = target: T2, Muscarinic acetylcholine receptor M1 (Homo sapiens, UniProt P11229); experiment: In vitro binding affinity towards muscarinic receptor in cerebral cortex (M1) was determined; assay type: tissue-based
T2 sequence (P11229 whole entry): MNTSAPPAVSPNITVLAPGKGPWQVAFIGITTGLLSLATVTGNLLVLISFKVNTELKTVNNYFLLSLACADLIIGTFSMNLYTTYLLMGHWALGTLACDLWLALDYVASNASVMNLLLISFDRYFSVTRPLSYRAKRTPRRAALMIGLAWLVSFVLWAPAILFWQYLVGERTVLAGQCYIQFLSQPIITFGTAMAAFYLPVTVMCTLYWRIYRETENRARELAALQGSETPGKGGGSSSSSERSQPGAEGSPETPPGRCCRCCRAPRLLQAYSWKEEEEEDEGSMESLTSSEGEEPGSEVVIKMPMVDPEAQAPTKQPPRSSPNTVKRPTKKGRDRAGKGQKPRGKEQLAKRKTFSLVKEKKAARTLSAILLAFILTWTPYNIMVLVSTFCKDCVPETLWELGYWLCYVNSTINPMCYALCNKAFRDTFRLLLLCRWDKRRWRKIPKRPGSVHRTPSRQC

[5] = target: Muscarinic acetylcholine receptor (Cavia porcellus); experiment: Binding affinity towards muscarinic receptor in urinary bladder was determined

Muscarinic acetylcholine receptor M3, sequence (P20309 whole entry): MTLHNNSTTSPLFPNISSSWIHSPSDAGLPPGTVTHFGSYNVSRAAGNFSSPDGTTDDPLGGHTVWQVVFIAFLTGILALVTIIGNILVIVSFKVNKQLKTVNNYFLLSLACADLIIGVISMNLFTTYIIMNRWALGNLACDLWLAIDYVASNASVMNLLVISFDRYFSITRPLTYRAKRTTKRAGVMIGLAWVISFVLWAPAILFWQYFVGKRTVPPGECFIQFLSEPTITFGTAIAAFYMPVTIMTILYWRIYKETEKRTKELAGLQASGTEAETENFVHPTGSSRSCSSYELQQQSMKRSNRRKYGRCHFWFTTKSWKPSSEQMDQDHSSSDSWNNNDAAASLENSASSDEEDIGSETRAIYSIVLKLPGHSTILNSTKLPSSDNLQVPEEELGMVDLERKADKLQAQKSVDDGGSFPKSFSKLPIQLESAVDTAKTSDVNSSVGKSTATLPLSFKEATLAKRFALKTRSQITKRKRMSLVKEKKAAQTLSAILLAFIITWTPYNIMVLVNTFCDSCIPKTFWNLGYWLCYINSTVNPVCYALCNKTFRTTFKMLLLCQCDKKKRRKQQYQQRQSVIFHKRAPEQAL

Ki [1] [nM] | Ki [2] [nM] | Ki [3] [nM] | Ki [4] [nM] | Structure (SMILES) | Kb [5] [nM]
17000 | > 8000 |  | > 8000 | OC1(C2=CN3CCC2CC3)c2ccccc2Oc2ccccc21 | 
> 5000 | > 5000 | > 5000 | > 5000 | OC1(C2=CN3CCC2CC3)c2ccccc2-c2ccccc21 | 
6900 | 2400 | 8000 | 2040 | OC1(C2=CN3CCC2CC3)c2ccccc2CCc2ccccc21 | 

Second part, the molecule before the results:

Structure (SMILES) | Ki [1] [nM] | Ki [2] [nM] | Ki [3] [nM] | Ki [4] [nM] | Kb [5] [nM]
CC(=O)c1ccc(C2=CN3CCC2CC3)s1 | 2600 | 1550 | 2600 | 480 | 
O=Cc1ccc(C2=CN3CCC2CC3)s1 | 4800 | 2600 | 5700 | 990 | 
COc1ccccc1C(O)C1=CN2CCC1CC2 (configuration not stated) | 1500 | 2200 | 2500 | 330 | 450
c1ccc2c(c1)C(=C1CN3CCC1CC3)c1ccccc1-2 | 100 | 98 | 249 | 50 | 370
OC1(C2=CN3CCC2CC3)c2ccccc2C=Cc2ccccc21 | > 200 | > 200 |  | > 200 | 
